# Measurements reported in patent US20260224538A1 (Purdue Research Foundation, priority 2023, published 2026).
# How the values were obtained:
# Type in all cases: biochemical
# Aβ1-42 = target: T1, Aβ1-42 (Homo sapiens, UniProt P05067); experiment: ThT fluorescence assay of Aβ1-42 fibril formation; conditions: screen on prone-to-aggregate proteins (FIG. 2A, FIG. 4A); Aβ 7 μM
# T1 construct: α-syn, Aβ1-40, Aβ1-42 were procured from rPeptide; purchased rPeptide
# Experimental: (§1) Thioflavin-T (ThT) fluorescence assays. Thioflavin-T (ThT) fluorescence assays were used to monitor fibril formation of recombinant Ap (fragments 1-40 and 1-42), recombinant α-syn, recombinant tau isoform 2N4R, synthetic IAPP, and synthetic TTR peptides treated with BTA and its derivatives. The IAPP ThT assay was performed in 10 mM PBS (pH 7.4) at a final concentration of 10 μM for both IAPP and ThT as published previously. Aβ fragments 1-40 and 1-42 were tested at 7 μM in 10 mM of PBS using ThT at a final concentration of 20 μM. Kinetics of α-syn fibrillization were performed as published previously.^36-37 TTR fragment kinetics of fibril formation were assessed at 10 μM in 100 mM sodium acetate buffer supplemented with 100 mM KCl and 1 mM ethylenediaminetetraacetic acid (EDTA) (pH 4) with 20 μM ThT. The fluorescence emission experiments were performed with the excitation and emission wavelengths set at 440 and 485 nm, respectively, with a Synergy HT multi-mode microplate reader (BioTek, Winooski, VT). Samples were measured in three replicates, and the experiments were repeated three times using at least two different stock solutions. For each time point, arbitrary units of fluorescence were calculated from the mean values normalized against the maximum value in each completed assay. The lag time for each condition was calculated as previously described. All results contained in histograms were presented as mean±SEM. Data were analyzed by the one-way analysis of variance with Dunnett's multiple comparisons between controls and compounds. Differences were considered statistically significant at p<0.05.
# tau isoform 2N4R [1] = target: T2, tau isoform 2N4R (Homo sapiens, UniProt P10636); experiment: TEM of tau isoform 2N4R fibrils; conditions: compound 100 μM, tau 10 μM, molar ratio 1:10
# T2 construct: made in house; host or cells: E. coli BL21(DE3)
# Experimental: Transmission electron microscopy (TEM). After performing analysis with ThT fluorescence assay, TEM was utilized to detect fibril formation. A volume of 10 μL was applied to a 400-mesh Formvar-carbon-coated copper grid (Electron Microscopy Sciences, Hatfield, PA). The grids were incubated for 1 minute and washed three times with distilled water. They were carefully air-dried and incubated for 1 minute in a fresh solution of 1% uranyl acetate. Samples were air-dried and observed using a transmission microscope. Visualization of the grids was performed with TEM (JEOL 1400 Flash, Japan). Acquisition of pictures was performed with settings of accelerating voltage of 100 kV and magnification of 25 k and/or 40 k.
# [2] = target: T3, transthyretin fragment peptide (TTR81-127) (Homo sapiens, UniProt P02766); experiment: ThT fluorescence assay of TTR81-127 fibril formation; conditions: compounds at 100 μM, TTR81-127 10 μM, control 0.25% DMSO
# T3 construct: TTR fragment 81-127 was obtained from AnaSpec; purchased AnaSpec; host or cells: synthetic peptide
# Experimental: as §1
# tau isoform 2N4R [3] = target: T2, tau isoform 2N4R; experiment: PICUP, tau isoform 2N4R oligomerization
# Experimental: The bacterial expression plasmid consisting of the vector pRK172 carrying a cDNA encoding the human Tau 2N4R isoform was obtained from Dr. David Eliezer (Weill Cornell Medicine, New York, NJ). For protein expression, E. coli BL21(DE3) cells were transformed with the plasmid and grown in LB media supplemented with ampicillin (100 μg/mL). Protein over-expression was induced by the addition of 1 mM IPTG for 4 hours at 37° C., and cells were pelleted by centrifugation at 6,000 g for 15 minutes at 4° C. The cells were resuspended in lysis buffer (20 mM MES, 400 mM NaCl, 0.2 mM MgCl2, 1 mM EGTA, protease inhibitor cocktail (P8340, Sigma Aldrich), 0.25 mg/mL lysozyme, and 1 μg/mL DNase 1, pH 6.8) and lysed by a French press cell disruptor at 4° C., after which the lysate was boiled for 20 minutes. Denatured proteins were pelleted by centrifugation at 30,000 g for 30 minutes at 4° C., and the supernatant was dialyzed overnight against cation exchange buffer (20 mM MES, 50 mM NaCl, 1 mM MgCl2, 1 mM EGTA, 2 mM DTT, 0.1 mM PMSF, pH 6.8). The dialysate was loaded onto a HiPrep SP HP column, and proteins were eluted with a linear gradient ranging from 50 mM to 1 M NaCl. Fractions containing tau isoform 2N4R were pooled, and the resulting protein solution was dialyzed against PBS (pH 7.4) and stored at −80° C.
# Photo-induced Cross-linking of Unmodified Proteins (PICUP) Assay. To induce oligomerization by cross-linking, α-syn (from Rpeptide, LLC) and tau isoform 2N4R were diluted in 10 mM phosphate buffer (pH 7.4) to reach a final concentration of 10 μM. Different compounds were added to the protein solution at a final concentration of 50 μM, resulting in a molar ratio of 1:5. To confirm the gradual effect of the compounds on the inhibition of α-syn oligomerization, the compounds were tested at final concentrations of 3.125, 6.25, 12.5, 25, and 50 μM. The controls consisted of samples without light exposition, without Ru(bpy) or ammonium persulfate, and without compound (i.e., 0.125% DMSO). The cross-linking reaction was initiated by the addition of 2 μL of Ru(bpy) (300 μM final concentration) and 2 μL ammonium persulfate (6 mM final concentration). Samples were irradiated immediately. Light exposure was of a one-second duration for α-syn and a three-second duration for tau isoform 2N4R, with a 53 W (120 V) incandescent lamp installed in a homemade dark-box. Each tube contained a final volume of 20 μL. After irradiation, 8.3 μL of Laemmli loading buffer containing 15% β-mercaptoethanol were immediately added to the solution, followed by incubation at 95° C. for 10 minutes. The cross-linked samples were separated on a 16% SDS-PAGE gel and visualized by Coomassie blue staining.
# T2 sequence (P10636 1-441 isoform P10636-8): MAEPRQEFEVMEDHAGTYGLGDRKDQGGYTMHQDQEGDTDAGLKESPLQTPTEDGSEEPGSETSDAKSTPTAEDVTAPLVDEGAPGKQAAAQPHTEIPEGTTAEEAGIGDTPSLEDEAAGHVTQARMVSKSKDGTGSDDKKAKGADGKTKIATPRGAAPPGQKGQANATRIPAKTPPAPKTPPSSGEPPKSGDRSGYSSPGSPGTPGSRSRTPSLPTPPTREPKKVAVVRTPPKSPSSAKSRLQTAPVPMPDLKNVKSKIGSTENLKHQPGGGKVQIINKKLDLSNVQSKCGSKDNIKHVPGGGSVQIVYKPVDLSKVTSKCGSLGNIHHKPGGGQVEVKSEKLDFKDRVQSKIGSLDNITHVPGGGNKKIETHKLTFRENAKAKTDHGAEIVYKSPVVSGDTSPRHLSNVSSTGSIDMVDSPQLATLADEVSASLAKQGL
# T1 sequence (P05067 672-713 limits assumed): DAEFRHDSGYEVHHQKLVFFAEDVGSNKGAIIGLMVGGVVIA
compound,measurement,setting,value
"Nc1nsc2ccc([N+](=O)[O-])cc12 [A, 5-nitro-1,2-benzothiazol-3-amine]","thioflavin T fluorescence intensity, Aβ1-42",Aβ1-42,27.5±4%
same,tau isoform 2N4R fibrils by TEM,tau isoform 2N4R [1],clear effect in reducing α-syn and tau fibrillization
same,"ThT TTR81-127 (%), maximum thioflavin T (ThT) intensity in percentage",[2],54.7 ± 1.4%
same,remaining activity at 100 µM,"[2]; read-out: ThT TTR81-127 (%), maximum thioflavin T (ThT) intensity in percentage",54.7 ± 1.4%
same,"tau isoform 2N4R oligomer formation (PICUP), dose dependence",tau isoform 2N4R [3]; 3.125-50 μM,reduced the oligomer formation in a dose-dependent manner
same,tau isoform 2N4R oligomer formation (PICUP),tau isoform 2N4R [3]; compound 50 μM,reduced α-syn and tau isoform 2N4R oligomer formation
